Values of other authors as cited in patent publication US7928052B2, “Enzyme stabilization” (Dow Global Technologies LLC, priority 2004, dated 2011).

## CC(O)C(=O)O (centres unmarked) [lactic acid]
H2L is fully protonated lactic acid
  K1, complexation constant B(OH)3+H2L⇄[1:1]−+H3O+: 1.8×10^−3
pH 4 to about pH 10, lactic acid having lost a proton
  K1′, complexation constant B(OH)3+HL−⇄[1:1]−+H2O: 9.0 M⁻¹
